Measurements reported in PMC5390981, “Peptide probes derived from pertuzumab by molecular dynamics modeling for HER2 positive tumor imaging” (PLoS Computational Biology, 2017).
Values belong to the molecule of their own block, whether it stands above or below them. No end group written: not given here.

How the values were obtained:
[1] = tested on: SKBR3 cell line with high HER2 expression; assay: Confocal fluorescence imaging of cells incubated with Cy5.5-labeled peptides; format: cell-based; settings: 50 μM Cy5.5-labeled peptide, 4°C, 20 min
Method: Four cell lines (SKBR3, MCF7, MDA-MB-468, and 293A) were seeded at a density of 3000 cells/mL into culture dishes and allowed to culture overnight with 5% CO2 at 37°C. Cell nuclei was stained with 1 mM Hoechst 33342 in 200 μL cell culture medium and incubated at 37°C for 15 min. Then, cells were incubated in culture medium with 50 μM Cy5.5-labeled peptide at 4°C for 20 min. Finally, cells were washed three times with cold PBS for observation. An Olympus FV1000-IX81 confocal-laser scanning microscope was used for confocal fluorescence imaging. An FV5-LAMAR 633 nm laser was used as the excitation source, and the emission wave length was collected at 690 nm. Hoechst 33342 was excited by a FV5-LD405-2 405 nm laser and collected within the range of 422–472 nm. All microscope parameters were identical for all observations of the binding ability of the various peptides.

[2] = tested on: HUVEC; assay: Toxicity of peptides to cells (S4 Fig); format: cell-based
[3] = molecular target: HER2/biotin complex (Homo sapiens, UniProt P04626); assay: OBOC peptide library screening with magnetic beads; format: binding; settings: library of 5184 sequences, HER2/biotin and magnetic streptavidin microspheres, 37°C, 2 h each step
Excerpt: The OBOC peptide library was designed based on binding free energies derived from the MD simulations of single and double mutants that are lower than the HER2/4665 complex. These mutations are in the 4665 fragment of pertuzumab from 55 to 64: EWVADVNPNX55X56X57X58X59X60N61X62X63X64K. According to computational calculations, the V, S, and M mutants have lower energies for X55. This is also the case for G, M, and Y for X56; G, A, and V for X57; S, F, and H for X58; I and R for X59; Y and W for X60; Q and F for X62; R, W, Q, and V for X63; and F and R for X64. The result is a 3*3*3*3*2*2*2*4*2 = 5184 library capacity.
The OBOC library synthesis and screening was performed as per the previously used method. Briefly, HBTU (4 mmol) and Fmoc-amino acid (4 mmol) reagent was dissolved in 0.4 mol/L N-Methyl morpholine in N,N-dimethylformamide and coupled with the solid phase supporting materials for 40 min during the coupling step. A 20% piperidine was used to remove the Fmoc group for 10 min in the deprotection step. During the OBOC library synthesis, the amino acid coupling process was carried out in the “split” step, while the deprotection process was carried out in the “pool” step. After elongation, a trifluoroacetic acid cleavage reagent was introduced to cleave the side chain protection group of each residue. […]

[4] = tested on: SKBR3; assay: Toxicity of peptides to cells (S4 Fig); format: cell-based
[5] = tested on: subcutaneous SKBR3 tumor xenografts; assay: In vivo and ex vivo fluorescence imaging of tumor targeting; design: species or system Balb/c female nude mice; settings: for in vivo tumor fluorescence intensity (binding affinity increase) relative to the control Cy5.5: Cy5.5-labeled peptide 1 μM, 200 μL i.v. tail vein, 30 min postinjection, nude mice with SKBR3 xenografts, average n = 3; for ex vivo tumor fluorescence signal compared to controls: dissected tumors 30 min postinjection of Cy5.5-labeled peptide, n = 3
Method: Five to six-week-old Balb/c female nude mice were subcutaneously administered approximately 1 × 10^7 SKBR3 cells into the right hind leg, to establish xenografted tumors. Thereafter, tumor size was periodically measured with a caliper, and mice with tumors of 6−8 mm in diameter were selected for the following small animal experiments. Cy5.5–NHS (Lumiprobe) was used to label peptides. Either Cy5.5-peptides or the control Cy5.5 (1 μM, 200 μL) was intravenously injected into tumor-bearing nude mice via the tail vein. The mice were anesthetized and fluorescence signals measured using the small animal in vivo imaging system 30 min postinjection. Three mice were used for each peptide and for control. Near-infrared fluorescence imaging of tumor-bearing nude mice were taken with an exposure time of 50 ms, using the Cy5.5 filter sets (excitation: 673 nm; emission: 707 nm), and the intensities were quantified using the same software. Then, fluorescence images of the main organs and of tumors dissected from nude mice were individually taken as above.

[6] = molecular target: T1, HER2 protein (human epidermal growth factor receptor 2) (human, UniProt P04626 23-652); assay: SPR; SPR imaging (SPRi, PlexArray HT); peptides immobilised through an N-terminal cysteine on a bare gold chip, blocked with 5% nonfat milk; HER2 or HSA in PBST flowed at 0.625 to 20 μg/mL; KD from fitting association-dissociation curves; settings: both partners purified
T1 construct: Human epidermal growth factor receptor 2 (HER2), bought protein; Surmise: the bought protein is probably a soluble extracellular domain, possibly tagged; source: bought: Sino Biological Inc., China

[7] = molecular target: HER2 on cells (SKBR3, high expression; MCF7, medium expression) (human (endogenous in SKBR3), UniProt P04626 23-1255); assay: cell-based or functional assay

- Kd [6]: 0.536 µM
B1: peptide 58F63Y with N-terminal cysteine, for SPRi (peptide)
peptide: CEWVADVNPNSGGFIYNQYFK
notes: a cysteine residue linked to the amino terminal, for attachment to the bare gold chip; numbers count on: pertuzumab (first letter is 46); source: synthetic peptide (Fmoc solid phase synthesis, HPLC purified)

- Kd [6]: 9.86 µM
B2: peptide 4665 (pertuzumab fragment Glu46 to Lys65) with N-terminal cysteine, for SPRi (peptide)
peptide: CEWVADVNPNSGGSIYNQRFK
notes: a cysteine residue linked to the amino terminal, for attachment to the bare gold chip; fragment of pertuzumab from Glu46 to Lys65 (beta hairpin); numbers count on: pertuzumab in PDB 1S78; source: synthetic peptide (Fmoc solid phase synthesis, HPLC purified)

- Kd [6]: 1.54 µM
B4: peptide 63Y (4665 with Arg63 to Tyr) with N-terminal cysteine, for SPRi (peptide)
peptide: CEWVADVNPNSGGSIYNQYFK
notes: as for B1

- Kd [6]: 1.32 µM
B7: peptide 58F (4665 with Ser58 to Phe) with N-terminal cysteine, for SPRi (peptide)
peptide: CEWVADVNPNSGGFIYNQRFK
notes: as for B1

Further lines, the molecule ahead of its results:

Molecule: Cy5.5-58F63Y: peptide 58F63Y labeled with Cy5.5 (Cy5.5–NHS) (EWVADVNPNSGGFIYNQYFK; also: Cy5.5 label (via Cy5.5-NHS), position not given here)
- fluorescent intensity of Cy5.5-peptides in SKBR3 cells [1]: strongest fluorescence

Molecule: EWVADVNPNSGGFIYNQYFK [58F63Y]
- toxicity to HUVEC cells [2]: no toxicity
- OBOC library screening result (bead identified by MALDI-TOF-MS/MS) [3]: positive
- toxicity to SKBR3 cells [4]: no toxicity
- in vivo tumor fluorescence intensity (binding affinity increase) relative to the control Cy5.5 [5]: 5.09 fold
- ex vivo tumor fluorescence signal compared to controls [5]: significantly high fluorescence signals

Molecule: EWVADVNPNSGGSIYNQRFK [compound 4665]
- toxicity to HUVEC cells [2]: no toxicity
- toxicity to SKBR3 cells [4]: no toxicity
- in vivo tumor fluorescence intensity (binding affinity increase) relative to the control Cy5.5 [5]: 3.52 fold
- ex vivo tumor fluorescence signal compared to controls [5]: significantly high fluorescence signals

B3: Cy5.5-labeled peptide 58F63Y (peptide)
peptide: EWVADVNPNSGGFIYNQYFK
modifications: also: Cy5.5 label (via Cy5.5-NHS), position not given here
- in vivo fluorescence intensity of SKBR3 tumor xenografts in nude mice 30 min after injection of Cy5.5-58F63Y, relative to the control Cy5.5 [7]: 5.09 fold

B5: peptide 55V63Y with N-terminal cysteine, for SPRi (peptide)
peptide: CEWVADVNPNVGGSIYNQYFK
notes: as for B1
- Kd [6]: 8.16 µM

B6: peptide 55V (4665 with Ser55 to Val) with N-terminal cysteine, for SPRi (peptide)
peptide: CEWVADVNPNVGGSIYNQRFK
notes: as for B1
- Kd [6]: 64.6 µM
